These molecules were tested on COS-1 cells (assay: In vitro mammalian cytotoxicity assay (Resazurin)).

Structure (SMILES)	In Vitro Cytotoxicity
CN(C)[C@@H]1C(O)=C(C(N)=O)C(=O)[C@@]2(C#N)C(O)=C3C(=O)c4c(ccc(-c5ccc6c(c5)OCO6)c4O)[C@H](N)[C@@]3(N)[C@H](O)[C@@]12N [CH]	** (toxicities less than 25 μg/mL are represented by **)
CN(C)Cc1ccc(-c2cc(N(C)C)c3c(c2O)C(=O)C2=C(O)[C@]4(C#N)C(=O)C(C(N)=O)=C(O)[C@@H](N(C)C)[C@]4(N)C[C@]2(N)C3)cc1 [IJ]	* (toxicities greater than >25 μg/ml are represented by *)
CN(C)[C@@H]1C(O)=C(C(N)=O)C(=O)[C@@]2(C#N)C(O)=C3C(=O)c4c(ccc(-c5ccccc5)c4O)C(N)[C@@]3(N)[C@H](O)[C@@]12N (stereo partly drawn) [AX]	** (toxicities less than 25 μg/mL are represented by **)
CN(C)c1cc(C#CCc2ccccc2)c(O)c2c1C[C@@]1(N)C[C@@]3(N)[C@H](N(C)C)C(O)=C(C(N)=O)C(=O)[C@@]3(C#N)C(O)=C1C2=O [KL]	** (toxicities less than 25 μg/mL are represented by **)
CC(C)COC(=O)Nc1cc(N(C)C)c2c(c1O)C(=O)C1=C(O)[C@]3(C#N)C(=O)C(C(N)=O)=C(O)[C@@H](N(C)C)[C@]3(N)C[C@]1(N)C2 [KQ]	** (toxicities less than 25 μg/mL are represented by **)
CN(C)[C@@H]1C(O)=C(C(N)=O)C(=O)[C@@]2(C#N)C(O)=C3C(=O)c4c(O)ccc(/C=C(\Cl)C5=CCCCC5)c4C[C@@]3(N)C[C@@]12N [GG]	** (toxicities less than 25 μg/mL are represented by **)
CN(C)c1cc(NC(=O)NC(=O)c2ccccc2)c(O)c2c1C[C@@]1(N)C[C@@]3(N)[C@H](N(C)C)C(O)=C(C(N)=O)C(=O)[C@@]3(C#N)C(O)=C1C2=O [IK]	* (toxicities greater than >25 μg/ml are represented by *)
CN(C)c1cc(CNc2ccccc2)c(O)c2c1C[C@@]1(N)C[C@@]3(N)[C@H](N(C)C)C(O)=C(C(N)=O)C(=O)[C@@]3(C#N)C(O)=C1C2=O [VD]	** (toxicities less than 25 μg/mL are represented by **)
Cc1noc(C)c1S(=O)(=O)Nc1ccc2c(c1O)C(=O)C1=C(O)[C@]3(C#N)C(=O)C(C(N)=O)=C(O)[C@@H](N(C)C)[C@]3(N)C[C@]1(N)C2 [RI]	** (toxicities less than 25 μg/mL are represented by **)
CN(C)[C@@H]1C(O)=C(C(N)=O)C(=O)[C@@]2(C#N)C(O)=C3C(=O)c4c(O)ccc(-c5ccc(NC(=O)CBr)cc5)c4C[C@@]3(N)C[C@@]12N [UV]	** (toxicities less than 25 μg/mL are represented by **)
Cc1ccc(C#Cc2cc(N(C)C)c3c(c2O)C(=O)C2=C(O)[C@]4(C#N)C(=O)C(C(N)=O)=C(O)[C@@H](N(C)C)[C@]4(N)C[C@]2(N)C3)cc1 [FL]	** (toxicities less than 25 μg/mL are represented by **)
CN(C)[C@@H]1C(O)=C(C(N)=O)C(=O)[C@@]2(C#N)C(O)=C3C(=O)c4c(O)ccc(C#CC5=CCCCC5)c4C[C@@]3(N)C[C@@]12N [GF]	** (toxicities less than 25 μg/mL are represented by **)
CN(C)[C@@H]1C(O)=C(C(N)=O)C(=O)[C@@]2(C#N)C(O)=C3C(=O)c4c(O)ccc(-c5ccc(CN6CCCC6)c6ccccc56)c4C[C@@]3(N)C[C@@]12N [OO]	** (toxicities less than 25 μg/mL are represented by **)
CC(N)CNCc1cc(N(C)C)c2c(c1O)C(=O)C1=C(O)[C@]3(C#N)C(=O)C(C(N)=O)=C(O)[C@@H](N(C)C)[C@]3(N)C[C@]1(N)C2 (stereo partly drawn) [SV]	* (toxicities greater than >25 μg/ml are represented by *)
CN(C)[C@@H]1C(O)=C(C(N)=O)C(=O)[C@@]2(C#N)C(O)=C3C(=O)c4c(O)ccc(-c5cccnc5)c4C[C@@]3(N)C[C@@]12N [UL]	** (toxicities less than 25 μg/mL are represented by **)
CN(C)[C@@H]1C(O)=C(C(N)=O)C(=O)[C@@]2(C#N)C(O)=C3C(=O)c4c(O)ccc(-c5cc6ccccc6o5)c4C[C@@]3(N)C[C@@]12N [FM]	* (toxicities greater than >25 μg/ml are represented by *)
Cc1cc(C)cc(-c2cc(N(C)C)c3c(c2O)C(=O)C2=C(O)[C@]4(C#N)C(=O)C(C(N)=O)=C(O)[C@@H](N(C)C)[C@]4(N)C[C@]2(N)C3)c1 [HD]	** (toxicities less than 25 μg/mL are represented by **)
COC(=O)c1cc(N)cc(-c2ccc(O)c3c2C[C@@]2(N)C[C@@]4(N)[C@H](N(C)C)C(O)=C(C(N)=O)C(=O)[C@@]4(C#N)C(O)=C2C3=O)c1 [PT]	* (toxicities greater than >25 μg/ml are represented by *)
CCC(C)C#Cc1ccc(O)c2c1C[C@@]1(N)C[C@@]3(N)[C@H](N(C)C)C(O)=C(C(N)=O)C(=O)[C@@]3(C#N)C(O)=C1C2=O (stereo partly drawn) [GW]	** (toxicities less than 25 μg/mL are represented by **)
CN(C)[C@@H]1C(O)=C(C(N)=O)C(=O)[C@@]2(C#N)C(O)=C3C(=O)c4c(O)ccc(-c5ccc(CNc6cccnc6)cc5)c4C[C@@]3(N)C[C@@]12N [UO]	** (toxicities less than 25 μg/mL are represented by **)
CCC(CC)CCc1ccc(O)c2c1C[C@@]1(N)C[C@@]3(N)[C@H](N(C)C)C(O)=C(C(N)=O)C(=O)[C@@]3(C#N)C(O)=C1C2=O [GX]	** (toxicities less than 25 μg/mL are represented by **)

Structure (SMILES)	In Vitro Cytotoxicity
CN(C)[C@@H]1C(O)=C(C(N)=O)C(=O)[C@@]2(C#N)C(O)=C3C(=O)c4c(O)ccc(-c5ccncc5)c4C[C@@]3(N)C[C@@]12N [UN]	** (toxicities less than 25 μg/mL are represented by **)
Cc1ccc(C#Cc2ccc(O)c3c2C[C@@]2(N)C[C@@]4(N)[C@H](N(C)C)C(O)=C(C(N)=O)C(=O)[C@@]4(C#N)C(O)=C2C3=O)cc1 [GI]	** (toxicities less than 25 μg/mL are represented by **)
CC#Cc1cc(C#CC)c2c(c1O)C(=O)C1=C(O)[C@]3(C#N)C(=O)C(C(N)=O)=C(O)[C@@H](N(C)C)[C@]3(N)C[C@]1(N)C2 [NI]	** (toxicities less than 25 μg/mL are represented by **)
CN(C)[C@@H]1C(O)=C(C(N)=O)C(=O)[C@@]2(C#N)C(O)=C3C(=O)c4c(O)cccc4[C@H](N)[C@@]3(N)[C@H](OC(=O)CCN3CCCC3)[C@@]12N [BQ]	** (toxicities less than 25 μg/mL are represented by **)
CN(C)[C@@H]1C(O)=C(C(N)=O)C(=O)[C@@]2(C#N)C(O)=C3C(=O)c4c(O)ccc(-c5ccc(NC(=O)OC(C)(C)C)cc5)c4C[C@@]3(N)C[C@@]12N [PF]	** (toxicities less than 25 μg/mL are represented by **)
CN(C)[C@@H]1C(O)=C(C(N)=O)C(=O)[C@@]2(C#N)C(O)=C3C(=O)c4c(ccc(-c5cc6ccccc6o5)c4O)[C@H](N)[C@@]3(N)[C@H](O)[C@@]12N [QC]	** (toxicities less than 25 μg/mL are represented by **)
CCC(=O)O[C@H]1[C@@]2(N)C(=C(O)[C@]3(C#N)C(=O)C(C(N)=O)=C(O)[C@@H](N(C)C)[C@]13N)C(=O)c1c(O)ccc(I)c1[C@@H]2N [CM]	** (toxicities less than 25 μg/mL are represented by **)
CCOc1ccc(-c2ccc(O)c3c2C[C@@]2(N)C[C@@]4(N)[C@H](N(C)C)C(O)=C(C(N)=O)C(=O)[C@@]4(C#N)C(O)=C2C3=O)cc1CN [OR]	* (toxicities greater than >25 μg/ml are represented by *)
CC(=O)NCc1cc(-c2ccccc2)c2c(c1O)C(=O)C1=C(O)[C@]3(C#N)C(=O)C(C(N)=O)=C(O)[C@@H](N(C)C)[C@]3(N)C[C@]1(N)C2 [LJ]	* (toxicities greater than >25 μg/ml are represented by *)
Cc1cc(C)cc(-c2ccc(O)c3c2C[C@@]2(N)C[C@@]4(N)[C@H](N(C)C)C(O)=C(C(N)=O)C(=O)[C@@]4(C#N)C(O)=C2C3=O)c1 [GD]	** (toxicities less than 25 μg/mL are represented by **)
CC(=O)c1ccc(-c2ccc3c(c2O)C(=O)C2=C(O)[C@]4(C#N)C(=O)C(C(N)=O)=C(O)[C@@H](N(C)C)[C@]4(N)[C@@H](O)[C@]2(N)[C@H]3N)cc1 [QP]	** (toxicities less than 25 μg/mL are represented by **)
CCCCCN(CCCCC)Cc1cc(N(C)C)c2c(c1O)C(=O)C1=C(O)[C@]3(C#N)C(=O)C(C(N)=O)=C(O)[C@@H](N(C)C)[C@]3(N)C[C@]1(N)C2 [MP]	** (toxicities less than 25 μg/mL are represented by **)
CCc1cc(N(C)C)c2c(c1O)C(=O)C1=C(O)[C@]3(C#N)C(=O)C(C(N)=O)=C(O)[C@@H](N(C)C)[C@]3(N)C[C@]1(N)C2 [QZ]	* (toxicities greater than >25 μg/ml are represented by *)
CN(C)[C@@H]1C(O)=C(C(N)=O)C(=O)[C@@]2(C#N)C(O)=C3C(=O)c4c(O)ccc(-c5ccc(NC(=O)NCCCCl)cc5)c4C[C@@]3(N)C[C@@]12N [US]	** (toxicities less than 25 μg/mL are represented by **)
CN(C)c1cc(C#Cc2cccc(O)c2)c(O)c2c1C[C@@]1(N)C[C@@]3(N)[C@H](N(C)C)C(O)=C(C(N)=O)C(=O)[C@@]3(C#N)C(O)=C1C2=O [FG]	** (toxicities less than 25 μg/mL are represented by **)
COc1ccc(-c2ccc(O)c3c2C[C@@]2(N)C[C@@]4(N)[C@H](N(C)C)C(O)=C(C(N)=O)C(=O)[C@@]4(C#N)C(O)=C2C3=O)cc1CN [QD]	* (toxicities greater than >25 μg/ml are represented by *)
CN(C)[C@@H]1C(O)=C(C(N)=O)C(=O)[C@@]2(C#N)C(O)=C3C(=O)c4c(ccc(NC(=O)OCC5c6ccccc6-c6ccccc65)c4O)[C@H](N)[C@@]3(N)[C@H](O)[C@@]12N [BK]	** (toxicities less than 25 μg/mL are represented by **)
CCCCNC(=O)NCc1cc(N(C)C)c2c(c1O)C(=O)C1=C(O)[C@]3(C#N)C(=O)C(C(N)=O)=C(O)[C@@H](N(C)C)[C@]3(N)C[C@]1(N)C2 [MG]	* (toxicities greater than >25 μg/ml are represented by *)
CCCCOc1ccc(O)c2c1C[C@@]1(N)C[C@@]3(N)[C@H](N(C)C)C(O)=C(C(N)=O)C(=O)[C@@]3(C#N)C(O)=C1C2=O [DL]	** (toxicities less than 25 μg/mL are represented by **)
CN(C)[C@@H]1C(O)=C(C(=O)NC(C)(C)C)C(=O)[C@@]2(C#N)C(O)=C3C(=O)c4c(O)cccc4C(N)[C@@]3(N)[C@H](O)[C@@]12N (stereo partly drawn) [DA]	* (toxicities greater than >25 μg/ml are represented by *)
CN(C)[C@@H]1C(O)=C(C(N)=O)C(=O)[C@@]2(C#N)C(O)=C3C(=O)c4c(O)ccc(-c5ccc(CN6CCCC6)o5)c4C[C@@]3(N)C[C@@]12N [PJ]	* (toxicities greater than >25 μg/ml are represented by *)

From patent US20050070510A1, “Substituted tetracycline compounds as synergistic antifungal agents” (Paratek Pharmaceuticals, Inc., priority 2001, published 2005)
